Measured values reported in paper PMC7245249 (Biomedical Journal, 2020).
Where a name gives a salt, the structure may show the parent alone. Read-outs that look alike come from different tables or passages of the source.

Key:
[1] = system: Feline infectious peritonitis virus; type: cell-based; details: for Selectivity index, Feline infectious peritonitis virus: CC50/EC50 in Fcwf-4 cells; for EC50: read-out: EC50 (Visual assay), Feline infectious peritonitis virus
Human coronavirus OC43 = test: microbe, parasite or virus in culture; type: cell-based, Human coronavirus OC43 (HCoV-OC43); details: for EC50: read-out: EC50 (IFA), Human coronavirus OC43; for Selectivity index, Human coronavirus OC43: CC50/EC50 in HCT-8 cells
in vitro [2] = details: cat (Felis catus)
in vitro [3] = details: human
[4] = Betacoronavirus 1, OC43, HCT-8, 72 h

Structure (SMILES) | Selectivity index, Feline infectious peritonitis virus [1] | EC50 [1] [µM] | EC50 (Human coronavirus OC43; [4]) [µM] | Selectivity index, Human coronavirus OC43 (Human coronavirus OC43) | CC50 (in vitro [2]) [µM] | CC50 (in vitro [3]) [µM] | EC50 (Human coronavirus OC43) [µM]
CCN(CC)CCCC(C)Nc1ccnc2cc(Cl)ccc12 (stereo not drawn) [Chloroquine (diphosphate), Chloroquine] | 1.35 | 27.9 ± 0.72 | 27.4 ± 2.51 | >1.82 | 37.5 | > 50 | –
Cc1nc2c([nH]1)-c1ccccc1N(C(=O)c1ccc(NC(=O)c3ccccc3-c3ccccc3)cc1)CC2 [Conivaptan] | – | 16.9 ± 1.51 | 12.2 ± 4.2 | >4.10 | > 100 | > 50 | –
N#C[C@@]1(c2ccc3c(N)ncnn23)O[C@H](CO)[C@@H](O)[C@H]1O [GS-441524] | – | – | 6.77 ± 0.71 | >7.39 | > 100 | > 50 | –
CC[C@H]1CN2CCc3cc(OC)c(OC)cc3[C@@H]2C[C@@H]1C[C@H]1NCCc2cc(OC)c(OC)cc21 [Emetine] | 3.00 | – | 0.21 ± 0.07 | >238 | 0.03 | > 50 | –
COC(=O)C[C@](O)(CCCC(C)(C)O)C(=O)O[C@@H]1C(OC)=C[C@]23CCCN2CCc2cc4c(cc2[C@H]13)OCO4 [Homoharringtonine] | 1.58 | – | 0.29 ± 0.03 | 26.7 | 0.049 ± 0.002 | 7.61 ± 0.6 | –
CC(=O)Oc1ccccc1C(=O)Nc1ncc([N+](=O)[O-])s1 [Nitazoxanide] | – | – | 28.6 ± 7.44 | >1.75 | 4.69 | > 50 | –
O=C(Nc1ccc([N+](=O)[O-])cc1Cl)c1cc(Cl)ccc1O [Niclosamide] | 0.80 | – | 1.36 ± 0.56 | >36.8 | 0.23 | > 50 | –
CS(=O)(=O)c1ccc(C(=O)Nc2ccc(Cl)c(-c3ccccn3)c2)c(Cl)c1 [Vismodegib] | – | – | 47.6 ± 3.29 | >1.05 | > 100 | > 50 | –
CCCCCC[C@H]1C(=O)O[C@H](C)[C@H](NC(=O)c2cccc(NC=O)c2O)C(=O)O[C@@H](C)[C@@H]1OC(=O)CC(C)C [Antimycin A] | 1.10 | – | 0.062 ± 0.003 | >806 | 81.9 ± 6.36 | > 50 | –
CC[C@@H](C(=O)[C@@H](C)[C@@H](O)[C@H](C)[C@@H]1O[C@@H]([C@@H](CC)C(=O)O)CC[C@@H]1C)[C@H]1O[C@]2(C=C[C@@H](O)[C@]3(CC[C@@](C)([C@H]4CC[C@](O)(CC)[C@H](C)O4)O3)O2)[C@H](C)C[C@@H]1C [Salinomycin] | 0.49 | – | 5.78 ± 2.17 | >8.65 | 0.34 ± 0.1 | > 50 | –
O=C1C(O)=C([C@H]2CC[C@H](c3ccc(Cl)cc3)CC2)C(=O)c2ccccc21 [Atovaquone] | – | – | 6.78 ± 0.73 | >7.37 | > 100 | > 50 | –
CCN(CC)CCOc1ccc2c(c1)C(=O)c1cc(OCCN(CC)CC)ccc1-2 [Tilorone (dihydrochloride), Tilorone] | 0.84 | – | 26 ± 2.24 | 1.38 | 9.38 | 35.9 ± 2.97 | –
CC(C)[C@@H]1NC(=O)[C@H](C)OC(=O)[C@@H](C(C)C)NC(=O)[C@@H](C(C)C)OC(=O)[C@H](C(C)C)NC(=O)[C@H](C)OC(=O)[C@@H](C(C)C)NC(=O)[C@@H](C(C)C)OC(=O)[C@H](C(C)C)NC(=O)[C@H](C)OC(=O)[C@@H](C(C)C)NC(=O)[C@@H](C(C)C)OC1=O [Valinomycin] | 2.45 | – | 0.4 | >122 | 3.98 ± 0.39 | > 50 | 0.41 ± 0.02
COc1ccc(C[C@H]2NC[C@H](O)[C@H]2OC(C)=O)cc1 [Anisomycin] | – | 0.023 | – | – | – | – | 0.2 ± 0.03
CC[C@H]1/C=C/C=C/C[C@@H](C)[C@H](O)[C@@](C)(O)C(=O)[C@@H](C)[C@H](O)[C@@H](C)C(=O)[C@@H](C)[C@H](O)[C@@H](C)/C=C/C(=O)O[C@@H]2[C@H](C)[C@H](CC1)O[C@]1(CC[C@H](C)[C@H](C[C@@H](C)O)O1)[C@H]2C [Oligomycin] | 1.06 | – | 5.2 | >9.58 | 18.8 | > 50 | 5.22 ± 0.96
Nc1ccn([C@@H]2O[C@H](CO)[C@@H](O)C2(F)F)c(=O)n1 [Gemcitabine (Hydrochloride), Gemcitabine] | – | – | 38.6 ± 11.4 | >1.30 | > 100 | > 50 | –
